Consider one compound from patent publication US5948814A, “Genistein for the treatment of cystic fibrosis” (priority 1998, dated 1999).

Entries after “also recorded” stand apart in the source; their conditions may differ.

Data set [1] concerns the target T1, wt-CFTR (Homo sapiens, UniProt P13569). The arrangement: expressed in transfected cells; host or cells: pooled: Calu-3 (endogenous, n=2). The conditions noted are these: cited from earlier work.
The subject of data set [2] is wt-CFTR. The experiment in a line: Patch clamp, cell-attached patches, Calu-3 cells. The note with it: 50 μM genistein on forskolin, n=15. In kind it is cell-based, human. From the text: (§1) Downward deflections represent channel opening.
Background: In patch-clamp work, channel activity is measured electrically.

The target of data set [3] is T2, ΔF508-CFTR (Homo sapiens, UniProt P13569, DEL508-508). The experiment in a line: Patch cramming, ΔF508-CFTR patch excised and crammed into NIH/3T3-CFTR cell. The note with it: ΔF508-CFTR crammed into NIH/3T3-CFTR cell; 10 μM forskolin, 50 μM genistein; n=2. In kind it is cell-based. The arrangement: expressed in transfected cells; host or cells: NIH/3T3 cells, stably transfected (NIH/3T3-ΔF508, gift of Dr. Richard Mulligan).
Description: as §1

The target in data set [4] is T1, wt-CFTR. As to the method:
FIGS. 9A and B are recordings of the effects of genistein on CFTR gating in excised inside-out patches from NIH/3T3-CFTR or NIH/3T3-ΔF508 cells. CFTR channels were activated by 10 μM forskolin +20 nM calyculin A before excision into an inside-out configuration. Presence of calyculin A helps to slow channel dephosphorylation. (A): continuous 14.5 minute recording of a patch containing wt-CFTR. Expanded traces are 22 seconds in length. ATP (500 μM) with or without 20 μM genistein was present as indicated. (B): 2 traces of 44 seconds in length of an excised inside-out patch with CFTR-ΔF508.
Electrophysiology: CFTR channel currents were recorded at room temperature (~22° C.) with a patch-clamp amplifier (EPC-9, Heka Electronic), filtered at 100 Hz with a built-in three-pole Bessel filter, and stored on videotapes. Data were subsequently refiltered at 25 Hz with an eight-pole Bessel filter (Frequency Device, Havervill, Mass.) and captured onto a hard disk at a sampling rate of 50 Hz. […] Patch-clamp electrodes were made from Corning 7052 glass capillaries (Warner Instrument, Hammed, Conn.). The pipette resistance was usually 3-5 M.OMEGA., and the seal resistance was >20 G.OMEGA.. The pipette solution contained (in mM) 140 N-methyl-D-glucamine chloride (NMDG-C1), 2 MgCl2, 5Ca Cl2, and 10 HEPES (pH 7.4 with NMDG). The superfusion solution contained (in mM) 150 […], 2 MgCl2, 1 EGTA, 5 glucose, and 5 HEPES (pH 7.4 with NaOH). In excised inside-out patch experiments, the bath solution contained (in mM) 130 MNDG-Cl, 10 EGTA, 10 HEPES, 20 tetraethylammonium chloride, 8 Tris, and 2 MgCl2 (pH 7.4 with NMDG). Pipette potential was held at 50 mV relative to the bath. Downward deflections represent channel opening.
Channels were first activated in cell-attached patches with forskolin plus calyculin A, a membrane-permeant phosphatase inhibitor [Suganuma et al., 1991]. Patches were then excised into an inside-out configuration.

Data set [5] concerns the target T1, wt-CFTR. In kind it is cell-based. Further details: expressed in transfected cells. The note with it: 50 μM genistein on forskolin; HEK293; n=10.
Description: Transient expression of wt-CFTR in HEK293 cells: The pRBG4 vector containing wt-CFTR cDNA is a generous gift from Drs. Kevin Gunderson and Ron Kopito of Stanford University. HEK293 cells were transfected with the calcium phosphate method as described previously [Gunderson et al., 1994].
as §1

Data set [6] concerns topoisomerases. The note with it: cited from earlier work.
For data set [7], the system named is acid secretion and osteopathic bone resorption. The conditions noted are these: cited from earlier work.
In data set [8] the test system is CFTR. The experiment in a line: In vivo phosphorylation of CFTR (32P) versus I- efflux, NIH/3T3-CFTR cells. In kind it is cell-based. The conditions noted are these: 50 μM genistein; 0-10 μM forskolin; all phosphorylation levels. As for the experimental part: I^- efflux: I^- efflux was measured as described previously [Reenstra et al., 1996]. Briefly, cells were incubated for 30 minutes with 37° C. I^- efflux buffer [(in mM) 141 NaCl, 4 KCl, 1 KH2 PO4, 0.9 MgCl2, 1.7 CaCl2. 10 N-2hydroxyethylpiperazine-N'-2-ethanesulfonic acid (HEPES), 25 glucose pH 7.4] containing 5 μCi/ml carrier-free ^125 I^- (sodium salt). Extracellular ^125 I^- was removed by washing four times with efflux buffer, and the rate of loss of intracellular ^125 I^- was determined by replacing the bathing solution with 37° C. efflux buffer every 60 seconds for 12 minutes. Time-dependent rates of ^125 I^- efflux are calculated from R=ln(^125 I^-t1 /^125 I^-t2)/(t1-t2), where ^125 I^-t is the intracellular ^125 I^- at time t and t1 and t2 are successive time points. Dose-response curves were obtained from peak rates of 125I^- efflux by nonlinear least squares fitting to R=[Ro +Rmx ·([fsk]/K1/2)]/[1+([fsk]/K1/2)], where Ro and Rmx are the rates of ^125 I efflux at zero and infinite concentration of forskolin (fsk), and K1/2 is the concentration of agonist that gives a half-maximal change.

In data set [9] the target is T2, ΔF508-CFTR. The experiment in a line: Other protein tyrosine kinase inhibitors, activation of ΔF508-CFTR. The data set is classed as cell-based. The arrangement: expressed in transfected cells; host or cells: NIH/3T3 cells, stably transfected (NIH/3T3-ΔF508, gift of Dr. Richard Mulligan).
Data set [10] relates to cAMP levels or PKA activity. The conditions noted are these: cited from earlier work.

T1 sequence (P13569 whole entry): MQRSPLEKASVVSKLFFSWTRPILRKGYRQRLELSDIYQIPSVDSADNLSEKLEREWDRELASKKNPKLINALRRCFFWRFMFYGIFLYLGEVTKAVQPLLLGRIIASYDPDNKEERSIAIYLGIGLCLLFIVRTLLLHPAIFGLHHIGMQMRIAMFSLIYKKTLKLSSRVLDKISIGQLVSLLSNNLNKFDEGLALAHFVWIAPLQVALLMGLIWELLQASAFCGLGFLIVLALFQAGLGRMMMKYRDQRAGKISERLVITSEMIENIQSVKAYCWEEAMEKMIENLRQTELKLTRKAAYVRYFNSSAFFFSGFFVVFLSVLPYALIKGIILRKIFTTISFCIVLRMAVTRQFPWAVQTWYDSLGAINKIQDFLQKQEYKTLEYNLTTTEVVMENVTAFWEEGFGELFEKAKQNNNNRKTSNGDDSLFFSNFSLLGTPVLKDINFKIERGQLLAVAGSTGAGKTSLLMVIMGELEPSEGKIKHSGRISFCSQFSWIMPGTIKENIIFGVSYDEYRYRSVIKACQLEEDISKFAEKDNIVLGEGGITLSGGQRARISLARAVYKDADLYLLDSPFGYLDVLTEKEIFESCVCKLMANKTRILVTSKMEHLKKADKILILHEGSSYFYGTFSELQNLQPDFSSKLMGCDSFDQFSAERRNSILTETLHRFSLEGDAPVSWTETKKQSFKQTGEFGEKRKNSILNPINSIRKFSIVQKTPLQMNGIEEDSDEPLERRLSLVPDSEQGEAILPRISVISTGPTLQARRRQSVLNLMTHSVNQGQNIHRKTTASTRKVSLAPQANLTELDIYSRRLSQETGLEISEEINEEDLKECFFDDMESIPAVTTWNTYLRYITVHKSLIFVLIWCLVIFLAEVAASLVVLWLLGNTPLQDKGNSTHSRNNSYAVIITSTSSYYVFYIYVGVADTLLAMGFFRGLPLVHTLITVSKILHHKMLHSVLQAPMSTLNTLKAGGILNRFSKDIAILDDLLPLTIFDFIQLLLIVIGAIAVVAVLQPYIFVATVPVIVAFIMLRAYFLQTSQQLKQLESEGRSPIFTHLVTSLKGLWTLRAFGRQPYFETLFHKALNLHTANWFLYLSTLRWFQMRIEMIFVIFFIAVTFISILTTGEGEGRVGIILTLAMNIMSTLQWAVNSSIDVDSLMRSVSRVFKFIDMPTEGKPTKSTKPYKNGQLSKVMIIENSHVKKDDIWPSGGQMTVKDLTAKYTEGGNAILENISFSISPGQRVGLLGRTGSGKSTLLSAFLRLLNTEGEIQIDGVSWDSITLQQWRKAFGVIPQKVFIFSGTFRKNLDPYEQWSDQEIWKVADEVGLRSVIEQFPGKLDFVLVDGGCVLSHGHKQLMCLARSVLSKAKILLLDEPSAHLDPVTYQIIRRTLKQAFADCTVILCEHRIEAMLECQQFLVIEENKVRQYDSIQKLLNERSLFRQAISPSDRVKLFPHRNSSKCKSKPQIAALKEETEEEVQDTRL
T2 sequence (P13569 with tags, fused parts or gaps DEL508-508): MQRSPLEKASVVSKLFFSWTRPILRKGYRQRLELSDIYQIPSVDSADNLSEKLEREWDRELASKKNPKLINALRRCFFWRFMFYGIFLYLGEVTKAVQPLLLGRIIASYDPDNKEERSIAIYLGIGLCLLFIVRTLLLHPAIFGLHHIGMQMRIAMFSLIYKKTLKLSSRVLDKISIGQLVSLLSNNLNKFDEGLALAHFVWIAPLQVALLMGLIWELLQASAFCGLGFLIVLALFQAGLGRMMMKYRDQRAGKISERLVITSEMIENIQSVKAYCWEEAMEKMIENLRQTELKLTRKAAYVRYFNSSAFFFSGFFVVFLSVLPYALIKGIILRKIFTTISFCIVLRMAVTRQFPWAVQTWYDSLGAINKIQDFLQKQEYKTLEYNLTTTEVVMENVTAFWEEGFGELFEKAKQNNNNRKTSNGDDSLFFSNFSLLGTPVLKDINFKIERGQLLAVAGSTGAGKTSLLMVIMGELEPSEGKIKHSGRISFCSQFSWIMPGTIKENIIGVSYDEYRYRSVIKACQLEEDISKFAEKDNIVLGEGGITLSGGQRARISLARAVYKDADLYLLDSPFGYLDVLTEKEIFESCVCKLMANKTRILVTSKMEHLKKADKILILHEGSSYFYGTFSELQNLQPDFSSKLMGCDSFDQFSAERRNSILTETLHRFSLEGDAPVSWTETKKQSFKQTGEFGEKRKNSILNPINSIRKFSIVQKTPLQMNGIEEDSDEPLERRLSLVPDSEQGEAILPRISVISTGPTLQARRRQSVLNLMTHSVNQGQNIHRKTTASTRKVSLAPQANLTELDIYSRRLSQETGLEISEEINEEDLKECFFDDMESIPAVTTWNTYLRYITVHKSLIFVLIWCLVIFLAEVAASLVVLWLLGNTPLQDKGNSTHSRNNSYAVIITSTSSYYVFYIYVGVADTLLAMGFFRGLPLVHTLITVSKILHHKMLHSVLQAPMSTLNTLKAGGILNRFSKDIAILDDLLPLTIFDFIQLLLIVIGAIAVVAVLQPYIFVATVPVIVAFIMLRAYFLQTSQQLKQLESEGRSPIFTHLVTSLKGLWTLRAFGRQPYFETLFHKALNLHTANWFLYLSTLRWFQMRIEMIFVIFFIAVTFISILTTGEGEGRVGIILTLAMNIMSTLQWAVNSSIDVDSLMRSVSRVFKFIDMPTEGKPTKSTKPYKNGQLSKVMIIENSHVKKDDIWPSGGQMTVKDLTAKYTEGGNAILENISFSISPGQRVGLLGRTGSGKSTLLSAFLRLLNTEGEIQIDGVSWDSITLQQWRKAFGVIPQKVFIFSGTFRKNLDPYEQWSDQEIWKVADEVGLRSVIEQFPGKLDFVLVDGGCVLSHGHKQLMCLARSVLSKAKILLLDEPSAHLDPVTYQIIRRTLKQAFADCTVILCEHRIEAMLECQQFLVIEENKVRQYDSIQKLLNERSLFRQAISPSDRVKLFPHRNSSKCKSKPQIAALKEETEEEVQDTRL

Turning to `O=c1c(-c2ccc(O)cc2)coc2cc(O)cc(O)c12` [Genistein, 4',5,7-trihydroxyisoflavone], in data set [1], the “basal wt-CFTR activity” value is “stimulates basal wt-CFTR activity”, the “channel activation in cells lacking basal CFTR activity” value is “does not appear to activate the channel in cells that lack a basal CFTR activity”, the “deactivation of wt-CFTR currents after removal of cAMP-dependent stimulation” value was “prevents deactivation of wt-CFTR channel currents” and the “potentiation of cAMP-dependent wt-CFTR activity” value is “potentiates cAMP-dependent wt-CFTR channel activity”. Also, in data set [1], the “steady-state phosphorylation of wt-CFTR” value was “increases the steady-state phosphorylation level of wt-CFTR”. Besides, the “activation of wt-CFTR chloride channels” value in data set [1] (variety of cells) is “activates wt-CFTR chloride channels”. Besides, the “average increase in mean-current amplitude by genistein” value in [2] came to 3.1±0.3 fold. For the same compound, the “enhancement of ΔF508-CFTR channel activity by genistein” value in data set [3] was determined as 19±11 fold. Further, the “increase of ATP-induced currents by genistein” value in [4] (50 μM genistein, n=8) is recorded as 2.2±0.1 fold. In data set [4] (50 μM genistein, no ATP), the “opening of channels in absence of ATP” value was “did not open wt-CFTR channels in the absence of ATP”. Moreover, the channel open time in [4] (ATP with genistein, stated for both wt- and ΔF508-CFTR) was 2,033±173 milliseconds. Besides, the “increase in Po by genistein” value in data set [4] (excised patches, ATP) is given as “twofold increase in the Po”. For the same compound, in data set [5], the “average increase in mean-current amplitude by genistein” value came to 3.1±0.7 fold. For the same compound, in [6], the inhibition of topoisomerases result was “inhibits”. Moreover, the “inhibition of acid secretion and osteopathic bone resorption” value in [7] is “effectively inhibits acid secretion and osteopathic bone resorption”. The “channel activity at given CFTR phosphorylation level” value in data set [8] was “channel activity was greater in the presence of genistein”. The “ΔF508-CFTR stimulation activity among protein tyrosine kinase inhibitors” value in data set [9] is “is the only protein tyrosine kinase inhibitor that has such an effect”. In addition, in [10], the “effect on cAMP levels or PKA activity” value is listed as “does not increase cAMP levels or PKA activity; also recorded: does not alter cellular cAMP levels or PKA activity”.
